Patent US7196108B2, “Bicyclic heterocycles for the treatment of diabetes and other diseases” (Incyte San Diego Inc., priority 2002, dated 2007)
Entries after “also recorded” stand apart in the source; their conditions may differ.

Experiments:
KKA^y mice = experiment: Oral administration in the treatment of type 2 diabetes in KKA^y mice (serum glucose and triglycerides); format: in vivo, mouse; conditions: 15 mg/kg oral gavage once daily in sesame oil, days 7 and/or 14, vs control; for serum glucose level: FIG. 2; for serum triglyceride level: FIG. 3
Method: These models include among others, db/db mice, ob/ob mouse, and KKA^y mice. […] A procedure for such experiments was described in detail in Iwatsuka, et al., 1970 General Survey of Diabetic Features of Yellow KK Mice. Endocrinol. Japon. 17: 23–35, incorporated herein by reference. The testing of the compounds of the invention was conducted as described in Example 22. The animals were treated with a single daily oral dose of 15 mg/kg of the test compound suspended in sesame oil (dose volume of 3–5 ml/kg). At the end of one and two weeks of treatment the animals were bled from the tail vein and their serum glucose and triglycerides and/or cholesterol was measured in duplicate.
Experimental Procedure: Six to eight week-old male KKA^y mice (available from Jackson Labs of Bar Harbour, Me.) were housed in a fixed 12–12-hr artificial light-dark cycle, and maintained on a standard rodent diet provided ad libitum. Animals were allowed two days to acclimate in this experimental environment prior to the initiation of the study. Prior to initiation of treatment, the animals were bled from the tail vein (100–200 μL of whole blood) and serum levels of glucose and triglycerides were measured in duplicate (Trinder kits; Sigma, St.Louis, Mo.). Based on these initial measures, animals were sorted into groups with approximately the same average serum triglyceride levels. Once sorted, the animals were housed one per cage and provided rodent diet ad libitum.
Treatment group A (n=6/group): • 1) KKA^y control (sesame oil) • 2) Compound 1 (15 mg/kg)
Treatment group B (n=6/group): • 1) KKA^y control (sesame oil) • 2) Compound 6 (15 mg/kg)
Treatment group C (n=6/group): • 1) KKA^y control (sesame oil) • 2) Compound 9 (15 mg/kg)
All compounds were suspended in sesame oil, and administered to animals in a volume of 3 ml/kg/dose. All treatments were administered by oral gavage once daily.
To monitor the effect of the tested Compounds, animals were bled at the end of the dark cycle on days 7 and/or 14 of the treatment period. Serum glucose and triglyceride levels were measured in duplicate. The blood was kept at room temperature to allow coagulation, after which the serum was separated and assayed for glucose and triglyceride levels.

[1] = disclosed in U.S. Pat. No. 6,515,003; cited from earlier work
3T3-L1 pre-adipocytes = conditions: disclosed in U.S. Pat. No. 6,515,003; cited from earlier work

SMILES	melting point [°C]	serum glucose level (KKA^y mice)	serum triglyceride level (KKA^y mice)	activity for the treatment of diabetes [1]	adipocyte differentiation activity (3T3-L1 pre-adipocytes)
CC(C)Cc1cc(-c2cc(/C=C3\SC(=O)NC3=O)ccc2OC(F)(F)F)c2c(c1)C(C)(C)CO2 [Compound 1, 5-[3-(5-Isobutyl-3,3-dimethyl-2,3-dihydro-benzofuran-7-yl)-4-trifluoromethoxy-benzylidene]-thiazolidine-2,4-dione]	142 to 146	significantly lowered; also recorded: reduction	lowered; also recorded: reduction	–	–
COc1c(F)cc(/C=C2\SC(=O)NC2=O)c(F)c1-c1cc(CC(C)C)cc2c1OCC2(C)C [Compound 6, 5-[2,5-Difluoro-3-(5-isobutyl-3,3-dimethyl-2,3-dihydro-benzofuran-7-yl)-4-methoxy-benzylidene]-thiazolidine-2,4-dione]	–	significantly lowered; also recorded: reduction	lowered; also recorded: reduction	–	–
CC1(C)COc2c(-c3cc(/C=C4\SC(=O)NC4=O)ccc3OC(F)(F)F)cc(-c3ccoc3)cc21 [Compound 9, 5-[3-(5-Furan-3-yl-3,3-dimethyl-2,3-dihydro-benzofuran-7-yl)-4-trifluoromethoxy-benzylidene]-thiazolidine-2,4-dione]	–	significantly lowered; also recorded: reduction	lowered; also recorded: reduction	–	–
Cc1cc2c(cc1-c1cc(/C=C3\SC(=O)NC3=O)ccc1OC(F)(F)F)C(C)(C)CCC2(C)C [Compound 20, 5-[3-(3,5,5,8,8-Pentamethyl-5,6,7,8-tetrahydro-naphthalen-2-yl)-4-trifluoromethoxy-benzylidene]-thiazolidine-2,4-dione]	–	–	–	active	active
